Measured values: PubChem BioAssay (NCI)
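Five concentrations, 48 hours, 96-well plates. GI50 marks 50% less growth. TGI is the concentration that stops growth completely.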

Legend:
Test in all cases: inhibition of tumour cell growth, NCI panel, 48 h
SK-OV-3 ovarian = test system: SK-OV-3 ovarian
NCI-H23 lung = test system: NCI-H23 lung
BT-549 breast = test system: BT-549 breast
RXF 393 renal = test system: RXF 393 renal
A498 renal = test system: A498 renal
786-0 renal = test system: 786-0 renal
EKVX NSCLC = test system: EKVX NSCLC
MDA-MB-435 = test system: MDA-MB-435
HOP-92 NSCLC = test system: HOP-92 NSCLC
HOP-62 NSCLC = test system: HOP-62 NSCLC
SN12C renal = test system: SN12C renal
HL-60(TB) leukemia = test system: HL-60(TB) leukemia
NCI-H226 lung = test system: NCI-H226 lung
UACC-62 melanoma = test system: UACC-62 melanoma
OVCAR-3 ovarian = test system: OVCAR-3 ovarian
SF-268 CNS = test system: SF-268 CNS
CCRF-CEM leukemia = test system: CCRF-CEM leukemia
OVCAR-5 ovarian = test system: OVCAR-5 ovarian

Row | Compound | TGI (SK-OV-3 ovarian) | TGI (NCI-H23 lung) | TGI (BT-549 breast) | TGI (RXF 393 renal) | TGI (A498 renal) | TGI (786-0 renal) | TGI (EKVX NSCLC) | TGI (MDA-MB-435) | TGI (HOP-92 NSCLC) | TGI (HOP-62 NSCLC) | TGI (SN12C renal) | TGI (HL-60(TB) leukemia) | TGI (NCI-H226 lung) | TGI (UACC-62 melanoma) | TGI (OVCAR-3 ovarian) | TGI (SF-268 CNS) | TGI (CCRF-CEM leukemia) | TGI (OVCAR-5 ovarian) | GI50 (NCI-H23 lung)
1 | CC1(C)O[C@@H]2[C@@H]3OC(=O)C[C@@H]3[C@@H](COCc3ccccc3)[C@@H]2O1 | > 100 µM | > 100 µM | > 100 µM | > 100 µM | > 100 µM | > 100 µM | > 100 µM | > 100 µM | > 100 µM | > 100 µM | > 100 µM | > 100 µM | > 100 µM | > 100 µM | > 100 µM | > 100 µM | > 100 µM | > 100 µM | –
2 | CCOP(=O)(OCC)/C(C#N)=C/c1c(C)[nH]c2ccccc12 | > 100 µM | > 100 µM | > 100 µM | > 100 µM | > 100 µM | > 100 µM | > 100 µM | > 100 µM | > 100 µM | > 100 µM | > 100 µM | > 100 µM | > 100 µM | > 100 µM | > 100 µM | > 100 µM | > 100 µM | > 100 µM | –
3 | COC(Cc1ccccc1)NC(C)=O (stereo not given) | > 100 µM | > 100 µM | > 100 µM | > 100 µM | > 100 µM | > 100 µM | > 100 µM | > 100 µM | > 100 µM | > 100 µM | > 100 µM | > 100 µM | > 100 µM | > 100 µM | > 100 µM | > 100 µM | > 100 µM | > 100 µM | –
4 | CCCCCC(/C=N/N)C(O)(C(F)(F)F)C(F)(F)F (stereo not given) | > 10 µM | 9.49 µM | 9.27 µM | > 10 µM | 7.95 µM | > 10 µM | 7.3 µM | > 10 µM | 6.36 µM | > 10 µM | > 10 µM | > 10 µM | 8.63 µM | > 10 µM | > 10 µM | 5.92 µM | > 10 µM | > 10 µM | –
5 | CC1(C)OC(=S)N(c2ccccc2)C12C=Cc1cc3ccccc3cc1O2 (stereo not given) | > 100 µM | > 100 µM | > 100 µM | > 100 µM | > 100 µM | > 100 µM | > 100 µM | > 100 µM | > 100 µM | > 100 µM | > 100 µM | > 100 µM | > 100 µM | > 100 µM | > 100 µM | > 100 µM | > 100 µM | > 100 µM | –
6 | Cc1cccc(NC(=S)N/N=C(/c2ccccc2)c2ccccn2)c1 | 14.1 µM | 13.9 µM | 17 µM | 13.2 µM | 13.7 µM | 14.6 µM | 4.08 µM | 17.6 µM | 15.7 µM | 17.5 µM | 12.4 µM | 1.53 µM | 6 µM | 15.5 µM | 11.9 µM | 12.6 µM | 1.48 µM | 8.68 µM | –
7 | O=C(/C(=C/c1cccs1)c1ccccc1)c1ccccc1 | > 100 µM | > 100 µM | > 100 µM | 18.8 µM | > 100 µM | > 100 µM | > 100 µM | > 100 µM | > 100 µM | 58.2 µM | > 100 µM | > 100 µM | > 100 µM | > 100 µM | > 100 µM | > 100 µM | > 100 µM | > 100 µM | –
8 | O=C(N/C(=C\c1ccccc1)C1Nc2ccccc2C(=O)O1)c1ccccc1 (stereo not given) | > 100 µM | > 100 µM | 62.2 µM | 63 µM | > 100 µM | 59 µM | > 100 µM | > 100 µM | > 100 µM | 61.6 µM | 84.6 µM | 36.1 µM | > 100 µM | > 100 µM | 96.7 µM | > 100 µM | 46.5 µM | > 100 µM | –
9 | O=C1O[C@H]2[C@@H]3OC(=O)c4cc(O)c(O)c(O)c4-c4c(cc(O)c(O)c4O)C(=O)OC[C@H]2O[C@@H](OC(=O)c2cc(O)c(O)c(O)c2)[C@@H]3OC(=O)c2cc(O)c(O)c3c2[C@@H]2C1=CC(=O)C(O)(O)C2(O)O3 (stereo not given in full) | > 100 µM | > 100 µM | > 100 µM | > 100 µM | > 100 µM | 39.8 µM | > 100 µM | 32.2 µM | > 100 µM | > 100 µM | 32.3 µM | > 100 µM | > 100 µM | > 100 µM | > 100 µM | > 100 µM | > 100 µM | 67.1 µM | –
10 | C[C@]12CCC(=O)C=C1CC[C@@H]1C2CC[C@]2(C)Nc3c(ncn3-c3ccc(F)cc3)CC12 (stereo not given in full) | > 100 µM | > 100 µM | 59.8 µM | 30.6 µM | > 100 µM | > 100 µM | > 100 µM | 42.5 µM | > 100 µM | > 100 µM | > 100 µM | > 100 µM | > 100 µM | 54.4 µM | > 100 µM | > 100 µM | 82.6 µM | > 100 µM | –
11 | CN(C)/C=N/S(=O)(=O)c1nn2c(C=O)c(-c3ccc(-c4ccc([N+](=O)[O-])cc4)o3)nc2s1 | > 71.5 µM | 16.2 µM | 8.05 µM | 5.04 µM | 54.2 µM | 2.47 µM | 21.1 µM | 7.41 µM | 8.12 µM | 27.7 µM | 4.57 µM | 2.54 µM | > 64.7 µM | 16.8 µM | 8.41 µM | > 29 µM | 3.98 µM | > 30.5 µM | –
12 | c1ccc2c(c1)C(=Nc1ccc(N=C3c4ccccc4-c4ccccc43)cc1)c1ccccc1-2 | > 100 µM | > 100 µM | > 100 µM | > 100 µM | > 100 µM | > 100 µM | > 100 µM | > 100 µM | > 100 µM | > 100 µM | > 100 µM | > 100 µM | > 100 µM | > 100 µM | > 100 µM | > 100 µM | > 100 µM | > 100 µM | –
13 | O=C(O)C(F)(OC(F)(F)C(F)(OC(F)(F)C(F)(F)C(F)(F)F)C(F)(F)F)C(F)(F)F (stereo not given) | > 100 µM | > 100 µM | > 100 µM | > 100 µM | > 100 µM | > 100 µM | > 100 µM | > 100 µM | > 100 µM | > 100 µM | > 100 µM | > 100 µM | > 100 µM | > 100 µM | > 100 µM | > 100 µM | > 100 µM | > 100 µM | –
14 | CC1Cc2cc(O)ccc2C2[C@@H]1C1CC[C@H](O)[C@@]1(C)C[C@@H]2O[N+](=O)[O-] (stereo not given in full) | > 100 µM | 67.8 µM | 48.9 µM | 29.3 µM | 78.7 µM | 65.3 µM | > 100 µM | 16.9 µM | 97.6 µM | 44.4 µM | > 94.4 µM | 8.3 µM | > 100 µM | 44 µM | > 84.1 µM | > 93.1 µM | 41.9 µM | > 100 µM | –
15 | CC1(C)CC[C@]2(C(=O)O)CC[C@]3(C)C(=CC[C@@H]4[C@@]5(C)CC[C@H](OC6OC(CO)C(O)C(O)C6OC6OC(CO)C(O)C(O)C6O)C(C)(C)[C@@H]5CC[C@]43C)[C@@H]2C1 (stereo not given in full) | 31.9 µM | 53.7 µM | 36.2 µM | 37.3 µM | 34 µM | 30.1 µM | 35.4 µM | 35.7 µM | 31.7 µM | 32.7 µM | 33.2 µM | 42.8 µM | 34.7 µM | 34.2 µM | 29.9 µM | 32 µM | 46.5 µM | 12.5 µM | –
16 | CN1CCN(c2ccc(-n3cc(C(=O)O)c(=O)c4cc(F)c(N5CCN(C)CC5)cc43)nc2)CC1 | > 100 µM | > 100 µM | > 100 µM | > 100 µM | > 100 µM | > 100 µM | > 100 µM | > 100 µM | > 100 µM | > 100 µM | > 100 µM | > 100 µM | > 100 µM | > 100 µM | > 100 µM | > 100 µM | > 100 µM | > 100 µM | –
17 | Cn1cnc([N+](=O)[O-])c1Sc1nc(N)nc2c1ncn2Cc1ccccc1 | 57 µM | 36.9 µM | 57.2 µM | 43.7 µM | 68.3 µM | 68.2 µM | 42.3 µM | 72.4 µM | 35.9 µM | 55.4 µM | 37.3 µM | 47.7 µM | 60.2 µM | 31.4 µM | 9.97 µM | 44.6 µM | > 100 µM | 63.1 µM | –
18 | O=C(O)c1cc(Sc2ccc([N+](=O)[O-])c(C(=O)O)c2)ccc1[N+](=O)[O-] | > 100 µM | > 100 µM | > 100 µM | > 100 µM | > 100 µM | > 100 µM | > 100 µM | > 100 µM | > 100 µM | > 100 µM | > 100 µM | > 100 µM | > 100 µM | > 100 µM | > 100 µM | > 100 µM | > 100 µM | > 100 µM | > 100 µM
